Patent publication US10125078B1, “NSAID derivatives of omega-3 polyunsaturated acids as gamma secretase modulators” (Jiva Pharma, Inc., priority 2015, dated 2018)
Where “and” joins values, the source holds several entries; their conditions need not be identical. Equal entries are not always repeated. Where two headings read alike, the source gives them in different places.

Assays:
[1] = target: T1, gamma-secretase (Homo sapiens, UniProt P49768); test: gamma-secretase modulating activity in cell cultures of human neuroblastoma SHSY-5 cells, intracellular Aβ x-40 by ELISA; type: cell-based; details: for signal nomalised to cells: normalised to collected cell mass; for sign-bkgr: signal minus background; for average signal triplicates: cells incubated 18 h, ELISA OD 450 nm; for experiment 1 / experiment 2 / experiment 3: Aβ ELISA signal, 0 nM about 100; for bestfit2 / bestfit3 / bestfit1: fitted curve; for IC50: read-out: calculated IC50
T1 construct: Fresh human neuroblastoma cells SHSY-5 were purchased from ATCC; host or cells: SH-SY5Y human neuroblastoma cells, untransfected
Experimental: The gamma-secretase modulating activity of Jiva compounds were determined in Cell Cultures of fresh human neuroblastoma SHSY-5 cells. The enzyme-linked immunosorbent assay (ELISA) is one of the most commonly used, reliable, and sensitive methods for quantitating the A β peptides. The detailed methods for the recovery of both soluble and deposited A β from brain tissue and the subsequent quantitation of the peptides by ELISA are thoroughly described in literature such as Stephen D. Schmidt, et al., “Amyloid, Enzyme-linked immunosorbent assay, ELISA, Extraction, Quantification”, Methods in Molecular Biology, vol. 849, DOI 10.1007/978-1-61779-551-0_34, Springer Science+Business Media, LLC 2012; Zeljko M. Svedruzic, et al., “Modulators of γ-Secretase Activity Can Facilitate the Toxic Side-Effects and Pathogenesis of Alzheimer's Disease”, PLOS ONE, 1 Jan. 2013|Volume 8|Issue 1; Catherine R. Burton et al., “The Amyloid-β Rise and γ-Secretase Inhibitor Potency Depend on the Level of Substrate Expression” Aug. 22, 2008 The Journal of Biological Chemistry 283, 22992-23003.
The well-studied γ-secretase inhibitor, semagacestat (WIKI) was used as a positive control in the above assays.
The following are procedures used for screening gamma-secretase modulating activity of Jiva compounds in cell cultures.
Protocol for Growing SHSY-5 Cells:
Fresh human neuroblastoma cells SHSY-5 were purchased from ATCC in the […]. All SHSY-5 cells were propagated and grown in p75 flasks, following the supplier's instructions. Briefly, SH-SY5Y cells were grown to confluence in Dulbecco's Modified Eagles Medium (DMEM) supplemented with 2 mM L-glutamine, 1× nonessential amino acids, and 0.22 micrometers filtered 10% heat inactivated fetal bovine serum (FBS) in a 5% CO2 humidified incubator at 37° C. Cultures were split twice a week and cells were seeded at 2.5×10^4 cells/cm^2. The cells were detached from the bottles after two phosphate buffer washes that were followed by 5 min treatment with 0.25% trypsine solution.
Protocol for Preparation of Jiva Compounds and the Initial Screening:
Jiva compounds were dissolved under sterile conditions in different volumes of molecular biology grade dimethylsulfoxide (DMSO) so that the final concentration was 200 mM, with the goal to screen in a concentration range from 50 to 1000 μM. Thus, between 1 μL to 20 µL of DMSO solution of each Jiva compound was added to 4 mL of sterile cell media with FBS adjusted to 1%. The cells were incubated with different compounds for 18 h (i.e. overnight). Following the incubation cells were tested for viability and morphology. The first viability criteria was attachment to the surface, the second viability criteria was resistance to trypan blue uptake. Only viable cells were harvested for ELISA screening.
Confluent cells were scraped from p25 cell-culture bottles and collected in pellets by centrifugation for 5 mins at 1000 g. To measure intracellular amyloid β, the centrifugation helps in concentrating Aβ1-40 peptides for measurements. About 40 micro grams of cell can be recovered from 4 mL cell medium in p25 cell culture bottles. The cell pellets were re-suspended in RIPA buffer and incubated on ice for 30 min.
RIPA buffer means 150 mM sodium chloride; 1% NP-40; 0.5% sodium deoxycholate; 0.1% SDS; 50 mM Tris pH 8.0.
Following lysis, the cell debris was separated by centrifugation, 1 h at 40,000×g. The clear supernatant was collected for ELISA measurements that followed immediately after the centrifugation.
ELISA measurements used IBL ELISA kits for Aβ x-40 using manufacturer's protocol and supplied standards. Briefly, for each measurement 100 μL sample was prepared from 12.5 μL lysis buffer and 87.5 μL ASSAYBUF solutions in each well. ASSAYBUF solution were supplied in the kit, and used to incubate cell lysate with anti-amyloid antibody attached to the wells in ELISA plates. The plate covered with plate-lid was incubated with gentle shaking overnight at 4° C. […]

[2] = test system: mild AD patients; details: cited from earlier work
[3] = test system: Aβ42 peptide; details: cited from earlier work
[4] = test system: 4 year old children; details: cited from earlier work
[5] = compared with tarenflurbil; cited from earlier work
[6] = 100000.0 nM, listed as JIVA002B
[7] = 1000000.0 nM, listed as JIVA002B

## CC/C=C\C/C=C\C/C=C\CCCCCCCCC1(C(=O)OC(C)(C)C)CC1 [JIVA 25, ALA Cyclopropyl-fibrate t-butyl Ester]
[1]; 20 microM
  signal nomalised to cells: 0.209 and 0.130
  sign-bkgr: 0.316 and 0.173

## CC/C=C\C/C=C\C/C=C\CCCCCCCCC1(C(=O)O)CC1 [JIVA 27, ALA Cyclopropyl Fibrate]
[1]; 20 microM
  average signal triplicates: 0.355
  signal nomalised to cells: 0.201
  sign-bkgr: 0.236

## C[C@@H](C(=O)O)c1ccc(-c2ccccc2)c(F)c1 [tarenflurbil]
[2]
  outcome of large scale clinical trials: failed large scale clinical trials
[3]
  potency at inhibiting formation of toxic Aβ42 peptide: low potency

## CC/C=C\C/C=C\C/C=C\C/C=C\C/C=C\CCCCC1(C(=O)OC(C)(C)C)CC1 [JIVA 24, EPA Cyclopropyl-fibrate t-butyl Ester]
[1]; 7.13 microM
  average signal triplicates: 0.300
  signal nomalised to cells: 0.233
  sign-bkgr: 0.246

## CC/C=C\C/C=C\C/C=C\C/C=C\C/C=C\C/C=C\CCC(=O)O [DHA, cis,cis,cis,cis,cis,cis-4,7,10,13,16,19-docosahexaenoic acid]
[4]
  effects on cognitive function: beneficial effects

## CC/C=C\C/C=C\C/C=C\CCCCCCCCC(C(=O)O)C1CC1 (centres unmarked) [JIVA 29, ALA Cyclopropyl Acetic Acid Fibrate]
[1]; 20 microM
  average signal triplicates: 0.141
  signal nomalised to cells: 0.026
  sign-bkgr: 0.021

## CC/C=C\C/C=C\C/C=C\C/C=C\C/C=C\CCCCC(C(=O)O)C1CC1 (racemic) [JIVA 28, EPA Cyclopropyl-acetic acid-fibrate]
[1]; 21.4 nM
  experiment 1: 101
  experiment 2: 103
  experiment 3: 104
  bestfit2: 100.0
  bestfit3: 100.0
[1]; 21.4 nM, listed as JIVA002B
  bestfit1: 100.0 and 99.9
[1]; 74.1 nM
  experiment 1: 98
  experiment 2: 102
  experiment 3: 108
  bestfit2: 99.9
[1]; 74.1 nM, listed as JIVA002B
  bestfit1: 99.8 and 99.7
  bestfit3: 99.9 and 99.8
[1]; 100.0 nM
  experiment 1: 102
  experiment 2: 99
  experiment 3: 97
[1]; 100.0 nM, listed as JIVA002B
  bestfit1: 99.8 and 99.6
  bestfit2: 99.9 and 99.6
  bestfit3: 99.9 and 99.5
[1]; 213.8 nM
  experiment 1: 101
  experiment 2: 95
  experiment 3: 100
[1]; 213.8 nM, listed as JIVA002B
  bestfit1: 99.5 and 99.1
  bestfit2: 99.7 and 99.6
  bestfit3: 99.7 and 99.5
[1]; 741.3 nM
  experiment 1: 97
  experiment 2: 100
  experiment 3: 94
[1]; 741.3 nM, listed as JIVA002B
  bestfit1: 98.5 and 97.0
  bestfit2: 99.1 and 98.6
  bestfit3: 99.0 and 98.3
[1]; 1000.0 nM
  experiment 2: 101
  experiment 3: 104
[1]; 1000.0 nM, listed as JIVA002B
  experiment 1: 96 and 95
  bestfit1: 97.8 and 96.0
  bestfit2: 99.8 and 98.2
  bestfit3: 98.6 and 97.8
[1]; 2138.0 nM
  experiment 1: 90
  experiment 2: 98
  experiment 3: 90
[1]; 2138.0 nM, listed as JIVA002B
  bestfit2: 97.5 and 96.2
  bestfit3: 97.1 and 95.4
[1]; 7413.1 nM
  experiment 2: 85
[1]; 7413.1 nM, listed as JIVA002B
  experiment 1: 90 and 75
  experiment 3: 96 and 79
  bestfit1: 85.6 and 76.4
  bestfit2: 91.9 and 87.9
  bestfit3: 90.5 and 85.6
[1]; 10000.0 nM
  experiment 2: 85
[1]; 10000.0 nM, listed as JIVA002B
  experiment 1: 88 and 71
  bestfit1: 81.5 and 70.6
  bestfit2: 89.4 and 84.4
  bestfit3: 87.7 and 81.5
[1]; 21379.5 nM, listed as JIVA002B
  experiment 1: 73 and 58
  experiment 2: 73 and 62
  experiment 3: 79 and 64
  bestfit1: 57.3 and 52.9
  bestfit2: 79.7 and 71.6
  bestfit3: 76.9 and 67.3
[1]; 74131.0 nM
  experiment 2: 46
[1]; 74131.0 nM, listed as JIVA002B
  experiment 1: 28 and 18
  experiment 3: 57 and 33
  bestfit2: 53.1 and 42.1
  bestfit3: 48.9 and 37.2
[1]; [6]
  experiment 1: 26 and 13
  experiment 2: 49 and 33
  experiment 3: 46 and 27
  bestfit2: 45.7 and 35.1
  bestfit3: 41.5 and 30.5
[1]; 1000000.0 nM
  experiment 1: 2
  experiment 2: 8
  experiment 3: 2
[1]; [7]
  bestfit1: 4.2 and 2.3
  bestfit2: 7.7 and 5.1
  bestfit3: 6.6 and 4.2
[1]; 20 microM
  average signal triplicates: 0.162
  signal nomalised to cells: 0.034
  sign-bkgr: 0.042
[1]; first, experiment 1
  IC50: 44 µM and 24 µM
[1]; second, experiment 2
  IC50: 84 µM and 54 µM
[1]; third, experiment 3
  IC50: 71 µM and 44 µM

## CC(C)[C@H](O)C(=O)N[C@@H](C)C(=O)N[C@@H]1C(=O)N(C)CCc2ccccc21 [SEMAGACESTAT, semagacestat, reference compound]
[1]; 2 microM
  average signal triplicates: 0.12
  signal nomalised to cells: 0.000
  sign-bkgr: 0

## O=C(O)C1(c2ccc(-c3ccc(Cl)c(Cl)c3)c(F)c2)CC1 [CHF-5074]
[5]
  brain penetration: greater brain penetration
[3]
  Aβ42 IC50: potent

## CC(C)C[C@H](C(=O)O)c1cc(-c2ccc(C(F)(F)F)cc2)cc(-c2ccc(C(F)(F)F)cc2)c1 [JNJ-40418677]
[5]
  brain penetration: greater brain penetration
[3]
  Aβ42 IC50: potent
